Measurements published in US10168342B2, “Lipid probes and uses thereof” (THE SCRIPPS RESEARCH INSTITUTE, priority 2015, dated 2019).

Columns and labels:
Assay in all cases: isoTOP-ABPP mapping of AEA-DA-modified peptides in Neuro2a cells
Assay type in all cases: cell-based
[1] = molecular target: T1, AEA-DA-modified peptides in Neuro2a cells (Mus musculus, UniProt P58281); settings: AEA-DA-modified peptide OPA1 P58281 801-819, SEQ ID NO 74; probe 100 μM, 12 replicates
T1 construct: endogenous in cells; host or cells: Neuro2a

[2] = molecular target: T2, AEA-DA-modified peptides in Neuro2a cells (Mus musculus, UniProt Q8K411); settings: AEA-DA-modified peptide PITRM1 Q8K411 364-386, SEQ ID NO 87; probe 100 μM, 12 replicates
T2 construct: endogenous in cells; host or cells: Neuro2a

[3] = molecular target: T3, AEA-DA-modified peptides in Neuro2a cells (Mus musculus, UniProt Q9CQ45); settings: AEA-DA-modified peptide NENF Q9CQ45 84-94, SEQ ID NO 68; probe 100 μM, 12 replicates
T3 construct: endogenous in cells; host or cells: Neuro2a

[4] = molecular target: T4, AEA-DA-modified peptides in Neuro2a cells (Mus musculus, UniProt P20029); settings: probe 100 μM, 12 replicates
T4 construct: endogenous in cells; host or cells: Neuro2a

[5] = molecular target: T5, AEA-DA-modified peptides in Neuro2a cells (Mus musculus, UniProt Q9Z2R6); settings: AEA-DA-modified peptide UNC119 Q9Z2R6 131-140, SEQ ID NO 117; probe 100 μM, 12 replicates
T5 construct: endogenous in cells; host or cells: Neuro2a

[6] = molecular target: T6, AEA-DA-modified peptides in Neuro2a cells (Mus musculus, UniProt Q9DCC8); settings: AEA-DA-modified peptide TOMM20 Q9DCC8 69-89, SEQ ID NO 115; probe 100 μM, 12 replicates
T6 construct: endogenous in cells; host or cells: Neuro2a

[7] = molecular target: T7, AEA-DA-modified peptides in Neuro2a cells (Mus musculus, UniProt Q925I1); settings: AEA-DA-modified peptide ATAD3 Q92511 238-246, SEQ ID NO 16; probe 100 μM, 12 replicates
T7 construct: endogenous in cells; host or cells: Neuro2a

[8] = molecular target: T8, AEA-DA-modified peptides in Neuro2a cells (Mus musculus, UniProt P56812); settings: AEA-DA-modified peptide PDCD5 P56812 69-80, SEQ ID NO 80; probe 100 μM, 12 replicates
T8 construct: endogenous in cells; host or cells: Neuro2a

[9] = molecular target: T9, AEA-DA-modified peptides in Neuro2a cells (Mus musculus, UniProt Q61425); settings: AEA-DA-modified peptide HADH Q61425 250-272, SEQ ID NO 47; probe 100 μM, 12 replicates
T9 construct: endogenous in cells; host or cells: Neuro2a

[10] = molecular target: T10, AEA-DA-modified peptides in Neuro2a cells (Mus musculus, UniProt P61205); settings: AEA-DA-modified peptide ARF3 P61205 39-60, SEQ ID NO 11; probe 100 μM, 12 replicates
T10 construct: endogenous in cells; host or cells: Neuro2a

[11] = molecular target: T11, AEA-DA-modified peptides in Neuro2a cells (Mus musculus, UniProt Q8VDN2); settings: AEA-DA-modified peptide ATP1A1 Q8VDN2 360-386, SEQ ID NO 17; probe 100 μM, 12 replicates
T11 construct: endogenous in cells; host or cells: Neuro2a

[12] = molecular target: T12, AEA-DA-modified peptides in Neuro2a cells (Mus musculus, UniProt Q8BMK4); settings: AEA-DA-modified peptide CKAP4 Q8BMK4 292-307, SEQ ID NO 23; probe 100 μM, 12 replicates
T12 construct: endogenous in cells; host or cells: Neuro2a
T12 sequence (Q8BMK4 whole entry): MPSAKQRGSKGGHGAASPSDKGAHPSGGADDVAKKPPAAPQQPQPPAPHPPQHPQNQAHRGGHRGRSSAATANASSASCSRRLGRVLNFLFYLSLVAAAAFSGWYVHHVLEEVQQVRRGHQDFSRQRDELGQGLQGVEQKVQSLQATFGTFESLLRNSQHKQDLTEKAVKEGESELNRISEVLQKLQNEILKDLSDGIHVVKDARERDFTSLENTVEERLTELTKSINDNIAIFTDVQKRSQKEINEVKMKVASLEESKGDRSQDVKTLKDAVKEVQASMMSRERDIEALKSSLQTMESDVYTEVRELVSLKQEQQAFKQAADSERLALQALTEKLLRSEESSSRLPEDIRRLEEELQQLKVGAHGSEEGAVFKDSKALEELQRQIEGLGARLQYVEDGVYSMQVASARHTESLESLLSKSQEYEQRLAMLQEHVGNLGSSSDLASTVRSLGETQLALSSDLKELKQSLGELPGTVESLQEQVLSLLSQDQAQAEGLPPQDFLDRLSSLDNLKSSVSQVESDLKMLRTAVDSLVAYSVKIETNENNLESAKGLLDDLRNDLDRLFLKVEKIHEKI

T4 sequence (P20029 20-655): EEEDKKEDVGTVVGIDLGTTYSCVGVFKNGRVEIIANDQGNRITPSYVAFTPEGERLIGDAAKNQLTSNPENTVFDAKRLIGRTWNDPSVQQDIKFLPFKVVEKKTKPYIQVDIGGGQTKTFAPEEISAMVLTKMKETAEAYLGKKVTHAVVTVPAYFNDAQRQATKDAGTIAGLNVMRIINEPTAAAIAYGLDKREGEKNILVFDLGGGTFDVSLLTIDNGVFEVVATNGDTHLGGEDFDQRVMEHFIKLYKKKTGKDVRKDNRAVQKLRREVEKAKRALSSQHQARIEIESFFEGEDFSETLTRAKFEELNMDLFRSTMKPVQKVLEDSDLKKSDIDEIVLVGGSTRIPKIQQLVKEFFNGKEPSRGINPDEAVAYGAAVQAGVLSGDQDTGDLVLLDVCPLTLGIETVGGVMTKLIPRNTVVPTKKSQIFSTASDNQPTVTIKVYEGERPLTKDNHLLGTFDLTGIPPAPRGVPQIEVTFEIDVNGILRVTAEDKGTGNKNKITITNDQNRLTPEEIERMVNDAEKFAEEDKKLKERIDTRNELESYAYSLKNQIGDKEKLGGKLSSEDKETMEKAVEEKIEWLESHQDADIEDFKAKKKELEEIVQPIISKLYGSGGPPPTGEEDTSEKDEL
T3 sequence (Q9CQ45 31-171): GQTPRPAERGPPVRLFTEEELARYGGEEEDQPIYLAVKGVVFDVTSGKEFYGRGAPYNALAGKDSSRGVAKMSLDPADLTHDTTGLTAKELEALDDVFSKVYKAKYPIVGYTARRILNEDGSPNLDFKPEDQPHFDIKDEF
T8 sequence (P56812 whole entry): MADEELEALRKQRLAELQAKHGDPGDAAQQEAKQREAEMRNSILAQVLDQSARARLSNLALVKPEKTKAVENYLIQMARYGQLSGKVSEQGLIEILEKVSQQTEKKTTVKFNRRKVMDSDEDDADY
T10 sequence (P61205 whole entry): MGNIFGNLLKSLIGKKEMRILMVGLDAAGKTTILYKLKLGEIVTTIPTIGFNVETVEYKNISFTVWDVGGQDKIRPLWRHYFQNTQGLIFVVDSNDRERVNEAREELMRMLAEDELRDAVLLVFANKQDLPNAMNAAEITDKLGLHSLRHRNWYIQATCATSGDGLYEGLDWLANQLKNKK
T7 sequence (Q925I1 whole entry): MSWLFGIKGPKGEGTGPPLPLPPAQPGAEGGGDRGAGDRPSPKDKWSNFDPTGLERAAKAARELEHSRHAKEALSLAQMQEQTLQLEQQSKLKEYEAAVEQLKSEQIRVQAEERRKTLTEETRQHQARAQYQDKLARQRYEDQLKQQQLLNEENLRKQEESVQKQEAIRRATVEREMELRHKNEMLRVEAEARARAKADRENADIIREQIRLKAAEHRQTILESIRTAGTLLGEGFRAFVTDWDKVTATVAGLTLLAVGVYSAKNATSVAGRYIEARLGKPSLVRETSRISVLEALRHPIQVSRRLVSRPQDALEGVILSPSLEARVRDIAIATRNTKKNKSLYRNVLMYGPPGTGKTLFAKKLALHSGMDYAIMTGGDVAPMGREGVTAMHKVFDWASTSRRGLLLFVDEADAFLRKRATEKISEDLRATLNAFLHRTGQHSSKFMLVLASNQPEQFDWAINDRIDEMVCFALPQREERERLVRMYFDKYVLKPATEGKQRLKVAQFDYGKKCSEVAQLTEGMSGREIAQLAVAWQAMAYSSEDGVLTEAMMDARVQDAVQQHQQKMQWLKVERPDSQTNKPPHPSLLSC
T1 sequence (P58281 88-960): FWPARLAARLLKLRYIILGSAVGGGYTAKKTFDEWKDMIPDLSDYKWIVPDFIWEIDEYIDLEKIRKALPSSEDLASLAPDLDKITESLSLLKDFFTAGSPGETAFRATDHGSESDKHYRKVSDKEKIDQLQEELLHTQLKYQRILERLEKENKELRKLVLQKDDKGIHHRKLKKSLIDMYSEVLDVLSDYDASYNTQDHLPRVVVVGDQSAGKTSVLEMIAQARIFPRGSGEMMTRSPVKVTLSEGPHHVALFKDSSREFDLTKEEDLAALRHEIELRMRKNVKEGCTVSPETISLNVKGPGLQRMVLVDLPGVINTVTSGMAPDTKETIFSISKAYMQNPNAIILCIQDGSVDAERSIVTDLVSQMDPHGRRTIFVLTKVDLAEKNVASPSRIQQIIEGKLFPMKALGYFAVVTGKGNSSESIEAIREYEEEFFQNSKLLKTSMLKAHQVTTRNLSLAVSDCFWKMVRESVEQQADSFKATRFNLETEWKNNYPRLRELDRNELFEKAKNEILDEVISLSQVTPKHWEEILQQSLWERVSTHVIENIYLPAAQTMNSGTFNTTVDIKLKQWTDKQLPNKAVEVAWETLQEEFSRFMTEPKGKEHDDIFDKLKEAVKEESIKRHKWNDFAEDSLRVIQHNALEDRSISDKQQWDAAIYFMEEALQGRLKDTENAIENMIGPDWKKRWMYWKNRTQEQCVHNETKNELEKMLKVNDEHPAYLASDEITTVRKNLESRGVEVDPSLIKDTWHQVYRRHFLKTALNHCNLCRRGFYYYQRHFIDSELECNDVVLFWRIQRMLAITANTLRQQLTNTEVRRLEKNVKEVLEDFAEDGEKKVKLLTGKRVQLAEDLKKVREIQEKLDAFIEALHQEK
T2 sequence (Q8K411 16-1036): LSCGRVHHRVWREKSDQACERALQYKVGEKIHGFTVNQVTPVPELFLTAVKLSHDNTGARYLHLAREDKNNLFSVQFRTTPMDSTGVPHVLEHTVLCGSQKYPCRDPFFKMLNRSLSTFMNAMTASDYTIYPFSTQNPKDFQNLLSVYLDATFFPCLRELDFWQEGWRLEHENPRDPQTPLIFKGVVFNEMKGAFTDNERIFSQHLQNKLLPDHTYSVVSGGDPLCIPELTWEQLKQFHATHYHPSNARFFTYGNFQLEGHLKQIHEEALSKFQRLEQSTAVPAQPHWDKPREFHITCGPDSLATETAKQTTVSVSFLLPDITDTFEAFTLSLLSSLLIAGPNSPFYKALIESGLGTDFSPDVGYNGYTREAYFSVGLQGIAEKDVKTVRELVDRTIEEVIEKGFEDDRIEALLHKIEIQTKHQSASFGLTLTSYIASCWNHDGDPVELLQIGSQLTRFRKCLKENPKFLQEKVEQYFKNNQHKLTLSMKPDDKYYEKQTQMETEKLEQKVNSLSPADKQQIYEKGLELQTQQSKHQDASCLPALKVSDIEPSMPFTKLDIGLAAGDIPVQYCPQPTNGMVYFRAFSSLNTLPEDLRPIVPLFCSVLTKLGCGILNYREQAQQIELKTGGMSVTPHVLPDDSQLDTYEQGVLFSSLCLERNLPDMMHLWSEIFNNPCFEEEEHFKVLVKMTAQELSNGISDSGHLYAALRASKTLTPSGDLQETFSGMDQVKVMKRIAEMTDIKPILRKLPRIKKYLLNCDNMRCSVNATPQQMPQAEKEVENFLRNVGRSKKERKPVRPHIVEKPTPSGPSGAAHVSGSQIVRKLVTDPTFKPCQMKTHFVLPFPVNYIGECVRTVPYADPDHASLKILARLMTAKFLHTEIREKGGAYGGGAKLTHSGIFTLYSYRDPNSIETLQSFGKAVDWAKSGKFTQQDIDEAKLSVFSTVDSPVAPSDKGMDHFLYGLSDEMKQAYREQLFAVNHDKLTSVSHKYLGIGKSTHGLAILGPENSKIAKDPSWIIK
T6 sequence (Q9DCC8 whole entry): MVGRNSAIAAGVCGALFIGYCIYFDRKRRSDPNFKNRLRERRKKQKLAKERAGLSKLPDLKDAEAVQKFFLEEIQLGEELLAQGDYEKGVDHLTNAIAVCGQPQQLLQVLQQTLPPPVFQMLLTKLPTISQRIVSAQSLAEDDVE
T9 sequence (Q61425 13-314): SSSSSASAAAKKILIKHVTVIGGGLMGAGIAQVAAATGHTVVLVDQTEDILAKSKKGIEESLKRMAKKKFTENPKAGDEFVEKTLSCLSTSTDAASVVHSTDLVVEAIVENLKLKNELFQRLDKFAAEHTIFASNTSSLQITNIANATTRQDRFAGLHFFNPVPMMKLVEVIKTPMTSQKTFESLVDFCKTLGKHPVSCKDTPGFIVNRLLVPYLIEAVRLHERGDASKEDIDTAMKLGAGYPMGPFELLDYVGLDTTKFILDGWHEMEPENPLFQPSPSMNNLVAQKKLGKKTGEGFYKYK

## C#CCCCC1(CC/C=C\C/C=C\C/C=C\CCCC(=O)NCCO)N=N1 [AEA-DA, (5Z,8Z,11Z)-N-(2-hydroxyethyl)-14-(3-(pent-4-yn-1-yl)-3H-diazirin-3-yl)tetradeca-5,8,11-trienamide]
[1]
  Times observed: 2
[2]
  Times observed: 2
[3]
  Times observed: 4
[4]; AEA-DA-modified peptide HSPA5 P20029 466-476, SEQ ID NO 52
  Times observed: 8
[4]; AEA-DA-modified peptide HSPA5 P20029 635-656, SEQ ID NO 53
  Times observed: 4
[5]
  Times observed: 3
[6]
  Times observed: 7
[7]
  Times observed: 3
[8]
  Times observed: 5
[9]
  Times observed: 10
[10]
  Times observed: 9
[11]
  Times observed: 2
[12]
  Times observed: 7
